Source: publication PMC4773817 (2016)

What was measured:
[1] = system: FPS2.MT (labelled PS2.M) (DNA, G4) GTGGGTAGGGCGGGTTGG; assay: FRET melting; settings: not printed (procedure from ref. 50); 3 μM compound, 0.2 μM DNA
[2] = system: F10T (DNA, hairpin, hexaethylene glycol (HEG) linker between nucleotides 8 and 9) TATAGCTATATAGCTATAT; assay: FRET melting; settings: 3 μM compound, 0.2 μM DNA; no significant variation
[3] = system: CCR5-DEL (DNA, single strand) CTCATTTTCCATACATTAAAGATAGTCAT; assay: luminescence enhancement; settings: 1 μM compound, 5 μM DNA, 10 mM Tris, pH 7.4
[4] = system: ds26 (DNA, duplex) CAATCGGATCGAATTCGATCCGATTG; assay: FRET melting competition; settings: ds26 (2 μM, 10-fold excess) as competitor of 0.2 μM labelled PS2.M; 3 μM compound; no significant change
[5] = system: HP1 (DNA, hairpin) GGTACGTGGCTGAGGCCAGTGGGTAGGGCGGGTTGGCCTCAGCCACGTACC; assay: luminescence enhancement; settings: 1.1-fold emission enhancement
[6] = system: HP5 (DNA, hairpin) ACGTGGCTGAGGCCAGTGGGTAGGGCGGGTTGGCCTCAGCCACGT; assay: luminescence enhancement; settings: HP5 formed in assay without Nt.BbvCI
[7] = system: PS2.M 5'-side loop n=1 (DNA, G4) GTGGGAGGGCGGGTTGG; assay: luminescence enhancement; settings: 4.2-fold emission enhancement
[8] = system: PS2.M 5'-side loop n=17 (DNA, G4) GTGGGTTTTTTTTATTTTTTTTGGGCGGGTTGG; assay: luminescence enhancement; settings: 9.2-fold emission enhancement
[9] = system: PS2.M (DNA, G4) GTGGGTAGGGCGGGTTGG; assay: fluorescent intercalator displacement (G4-FID); settings: Tris-HCl buffer; thiazole orange displaced

ΔTm [1]: ~ 12 °C | binding [2]: no | binding [3]: weak | binding [4]: weak | binding [5]: weak | binding [6]: weak | binding [7]: yes | binding [8]: yes | G4DC50 [9]: 7.0 µM
Structure (SMILES): [Ir+3].[Ir+3].[c-]1ccccc1-c1ccc2ccccc2n1.[c-]1ccccc1-c1ccc2ccccc2n1.[c-]1ccccc1-c1ccc2ccccc2n1.[c-]1ccccc1-c1ccc2ccccc2n1.c1ccc(N(CCCCCN(c2ccccn2)c2ccccn2)c2ccccn2)nc1
